This is an account of results in ChEMBL document CHEMBL1201862, “PubChem BioAssay data set” (2004).

In general, AC50 refers to the concentration giving half of the maximal activity seen.

Calls of active or inactive are those of the source. Some results are limits rather than exact numbers.

The subject of assay [1] is Streptococcus sp. 'group A'. The assay can be described thus: Streptococcus pyogenes SK(-)GAS viability under kanamycin – luminescence, BacTiterGlo, confirmation, counter-screen for streptokinase expression inhibitor project, dose response (AID 1900). The class given is functional, organism-based.
The subject of assay [2] is Streptococcus. The assay can be described thus: GAS UMAA2166 growth inhibition – luminescence, BacTiterGlo, counter-screen for streptokinase expression inhibitor project, dose response (AID 1915).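 Note: potency for reduction of bacterial viability or growth.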 The class given is functional, organism-based.
Assay [3] is described as follows: Luminescence Cell-Based Dose Retest to Confirm Inhibitors of Cancer Stem Cells. [Related pubchem assays (depositor defined):AID2717, AID2721]. It counts as functional. As to conditions: Homo sapiens.
For assay [4], the target named is T1, Protein RecA (Mycobacterium tuberculosis, UniProt P9WHJ3).
T1 sequence (P9WHJ3 whole entry): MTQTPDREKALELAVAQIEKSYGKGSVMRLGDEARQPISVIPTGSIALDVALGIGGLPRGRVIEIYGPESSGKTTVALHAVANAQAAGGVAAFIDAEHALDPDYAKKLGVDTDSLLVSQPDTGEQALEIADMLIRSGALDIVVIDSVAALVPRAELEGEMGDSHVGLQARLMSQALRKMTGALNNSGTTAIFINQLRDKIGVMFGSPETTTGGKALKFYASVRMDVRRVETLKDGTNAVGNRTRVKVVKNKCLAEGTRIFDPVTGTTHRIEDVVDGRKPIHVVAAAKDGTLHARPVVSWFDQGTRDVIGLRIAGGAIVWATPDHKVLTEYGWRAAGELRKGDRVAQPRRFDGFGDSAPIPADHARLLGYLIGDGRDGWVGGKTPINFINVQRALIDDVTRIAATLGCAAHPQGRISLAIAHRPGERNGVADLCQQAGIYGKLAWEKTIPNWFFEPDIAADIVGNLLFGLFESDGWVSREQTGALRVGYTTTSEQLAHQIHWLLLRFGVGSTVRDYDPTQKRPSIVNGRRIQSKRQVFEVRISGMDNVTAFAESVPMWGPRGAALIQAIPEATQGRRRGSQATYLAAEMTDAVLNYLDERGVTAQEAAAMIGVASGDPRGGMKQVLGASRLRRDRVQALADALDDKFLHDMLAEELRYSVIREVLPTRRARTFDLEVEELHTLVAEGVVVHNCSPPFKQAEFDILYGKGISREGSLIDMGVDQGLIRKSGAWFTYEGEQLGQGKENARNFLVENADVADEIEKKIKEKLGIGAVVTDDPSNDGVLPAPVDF
The assay can be described thus: Fluorescence Cell-Free Homogeneous Dose Retest to Identify Inhibitors of RecA-Intein Splicing Activity. [Related pubchem assays (depositor defined):AID2097, AID2223, AID489010, AID492950]. The class given is functional.

The target in assay [5] is T2, Replicative DNA helicase DnaB (Mycobacterium tuberculosis, UniProt P9WMR3).
T2 sequence (P9WMR3 whole entry): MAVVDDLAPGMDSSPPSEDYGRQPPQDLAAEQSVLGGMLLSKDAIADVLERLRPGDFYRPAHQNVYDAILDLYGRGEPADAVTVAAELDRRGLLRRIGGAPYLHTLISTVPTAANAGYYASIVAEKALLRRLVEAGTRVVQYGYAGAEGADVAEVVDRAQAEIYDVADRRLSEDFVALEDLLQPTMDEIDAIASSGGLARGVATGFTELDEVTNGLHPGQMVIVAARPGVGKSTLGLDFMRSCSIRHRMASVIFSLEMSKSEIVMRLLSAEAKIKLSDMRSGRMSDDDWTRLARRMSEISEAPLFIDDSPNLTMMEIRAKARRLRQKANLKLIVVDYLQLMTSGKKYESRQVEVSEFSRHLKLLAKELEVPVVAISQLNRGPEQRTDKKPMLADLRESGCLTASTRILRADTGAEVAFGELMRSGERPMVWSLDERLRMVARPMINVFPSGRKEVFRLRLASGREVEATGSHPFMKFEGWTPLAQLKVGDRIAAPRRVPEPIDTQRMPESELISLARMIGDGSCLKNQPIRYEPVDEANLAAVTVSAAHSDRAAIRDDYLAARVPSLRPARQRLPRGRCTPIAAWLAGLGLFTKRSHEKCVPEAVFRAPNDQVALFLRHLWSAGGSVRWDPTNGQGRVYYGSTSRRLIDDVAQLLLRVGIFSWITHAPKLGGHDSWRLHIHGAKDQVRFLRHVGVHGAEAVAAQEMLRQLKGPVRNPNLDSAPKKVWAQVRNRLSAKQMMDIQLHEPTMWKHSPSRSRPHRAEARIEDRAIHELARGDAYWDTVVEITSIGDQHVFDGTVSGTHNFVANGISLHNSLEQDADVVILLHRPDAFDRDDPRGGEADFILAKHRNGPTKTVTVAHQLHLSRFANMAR
The assay can be described thus: DnaB intein splicing inhibitors, dose response, biochemical, cell-free fluorescence (AID 449749). The class given is functional.

The target of assay [6] is Cytochrome P450 3A4 (Homo sapiens, UniProt P08684).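 Note: CYP3A4 tested as one member of a cytochrome P450 panel screen.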
The target in assay [7] is T3, Heat shock factor protein 1 (Mus musculus, UniProt P38532).
T3 sequence (P38532 whole entry): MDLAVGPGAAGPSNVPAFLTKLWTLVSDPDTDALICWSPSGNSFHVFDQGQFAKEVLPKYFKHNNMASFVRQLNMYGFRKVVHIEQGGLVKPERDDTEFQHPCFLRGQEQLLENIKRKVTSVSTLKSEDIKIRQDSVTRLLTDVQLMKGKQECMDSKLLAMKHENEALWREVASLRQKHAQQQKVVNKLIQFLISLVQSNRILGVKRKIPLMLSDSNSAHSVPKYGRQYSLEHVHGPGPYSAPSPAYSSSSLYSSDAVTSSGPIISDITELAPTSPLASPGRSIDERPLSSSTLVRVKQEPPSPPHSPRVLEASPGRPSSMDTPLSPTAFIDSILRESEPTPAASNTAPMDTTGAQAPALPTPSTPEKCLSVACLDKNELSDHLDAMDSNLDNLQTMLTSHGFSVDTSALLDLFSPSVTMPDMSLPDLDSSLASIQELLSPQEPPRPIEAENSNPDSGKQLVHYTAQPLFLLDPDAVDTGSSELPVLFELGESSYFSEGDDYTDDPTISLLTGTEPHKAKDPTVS
The assay can be described thus: decrease of HSF1-responsive luciferase luminescence – cell-based, NIH3T3, dose retest, confirmation (AID 2382).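 Note: NIH3T3 fibroblasts with HSF1-driven luciferase reporter stressed by proteasome inhibitor MG132; luminescence from HSF1-driven luciferase expression after 8 hours of MG132 stress.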 It counts as functional.

The target in assay [8] is Cytochrome P450 2D6 (Homo sapiens, UniProt P10635).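 Note: CYP2D6 member of a cytochrome P450 panel assay.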
For assay [9], the target named is T4, Corticotropin-releasing factor receptor 2/Corticotropin-releasing factor-binding protein (Homo sapiens, UniProt P24387+Q13324).
T4 sequence (Q13324 whole entry): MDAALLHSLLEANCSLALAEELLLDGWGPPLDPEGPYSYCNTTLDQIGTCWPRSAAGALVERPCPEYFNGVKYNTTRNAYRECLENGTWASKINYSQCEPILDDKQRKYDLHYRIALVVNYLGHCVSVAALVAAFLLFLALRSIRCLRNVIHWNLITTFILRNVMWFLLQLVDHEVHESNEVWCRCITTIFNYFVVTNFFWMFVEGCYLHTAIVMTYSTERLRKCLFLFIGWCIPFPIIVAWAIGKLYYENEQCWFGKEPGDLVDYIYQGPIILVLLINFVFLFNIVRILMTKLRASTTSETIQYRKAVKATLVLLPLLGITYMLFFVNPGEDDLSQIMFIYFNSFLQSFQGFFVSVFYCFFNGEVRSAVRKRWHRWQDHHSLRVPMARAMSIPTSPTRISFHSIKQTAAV
T4 sequence (P24387 whole entry): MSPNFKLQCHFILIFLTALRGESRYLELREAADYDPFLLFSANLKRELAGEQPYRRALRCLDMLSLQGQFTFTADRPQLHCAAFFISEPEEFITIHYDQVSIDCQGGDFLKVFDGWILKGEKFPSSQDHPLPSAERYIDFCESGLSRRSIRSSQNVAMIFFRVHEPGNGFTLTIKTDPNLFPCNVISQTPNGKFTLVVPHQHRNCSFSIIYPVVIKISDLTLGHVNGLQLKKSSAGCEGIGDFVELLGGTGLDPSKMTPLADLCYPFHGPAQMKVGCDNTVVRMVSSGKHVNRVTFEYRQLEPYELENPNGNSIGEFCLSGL
The assay can be described thus: activators of CRF receptor 2 with binding protein – uHTS hits, confirmation (AID 602473). The class given is functional. As to conditions: read-out: EC50_Mean.

A short description of assay [10]: NIH3T3 cell viability loss – ATP luminescence, mouse fibroblasts, counter-screen, dose response (AID 2010).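 Note: cells exposed to compound for about 90 hours before reading.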 The class given is functional, cell-based. (In general: The purpose of a counterscreen is to sort out artefacts and off-target activity.)
Assay [11] can be described thus: Trypanosoma cruzi growth suppression in host cells – NIH3T3 host cells, beta-gal luminescence, confirmation (AID 2044).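 Note: intracellular parasites grown in NIH/3T3 mouse fibroblasts as host cells; luminescent beta-galactosidase reporter signal from transgenic T. cruzi replicating inside host cells; inhibitors lower the luminescence signal.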 It counts as functional, cell-based.

Chain of Cytochrome P450 3A4 (P08684 whole entry): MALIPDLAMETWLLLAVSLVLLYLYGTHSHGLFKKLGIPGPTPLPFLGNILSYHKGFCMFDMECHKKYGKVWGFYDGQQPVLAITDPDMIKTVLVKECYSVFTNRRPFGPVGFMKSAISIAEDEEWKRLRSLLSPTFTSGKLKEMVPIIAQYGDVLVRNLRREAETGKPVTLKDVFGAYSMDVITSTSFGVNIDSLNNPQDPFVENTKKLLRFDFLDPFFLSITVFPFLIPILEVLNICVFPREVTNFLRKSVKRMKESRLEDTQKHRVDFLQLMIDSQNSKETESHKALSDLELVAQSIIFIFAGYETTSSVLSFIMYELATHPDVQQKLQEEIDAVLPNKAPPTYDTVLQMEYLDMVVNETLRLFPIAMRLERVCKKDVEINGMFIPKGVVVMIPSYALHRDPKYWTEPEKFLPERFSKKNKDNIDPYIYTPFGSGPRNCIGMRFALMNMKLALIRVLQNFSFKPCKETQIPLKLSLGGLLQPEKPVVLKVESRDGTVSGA
Chain of Cytochrome P450 2D6 (P10635 whole entry): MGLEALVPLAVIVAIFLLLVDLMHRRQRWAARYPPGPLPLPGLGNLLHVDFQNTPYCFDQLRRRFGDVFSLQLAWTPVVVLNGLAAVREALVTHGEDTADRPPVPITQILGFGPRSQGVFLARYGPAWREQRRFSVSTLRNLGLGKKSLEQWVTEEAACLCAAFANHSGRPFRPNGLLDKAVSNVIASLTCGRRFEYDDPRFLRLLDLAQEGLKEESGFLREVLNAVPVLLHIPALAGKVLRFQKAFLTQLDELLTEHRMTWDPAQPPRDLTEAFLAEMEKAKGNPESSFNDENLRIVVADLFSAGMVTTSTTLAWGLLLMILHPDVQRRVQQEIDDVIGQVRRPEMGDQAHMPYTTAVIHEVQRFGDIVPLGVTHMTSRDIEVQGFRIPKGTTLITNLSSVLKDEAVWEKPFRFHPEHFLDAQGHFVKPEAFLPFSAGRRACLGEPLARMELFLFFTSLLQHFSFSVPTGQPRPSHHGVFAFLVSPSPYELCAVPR

With `CCCC1CC(C(=O)NC(C(C)Cl)C2OC(SC)C(O)C(O)C2O)N(C)C1` (centres undefined), the EC50 in [1] and in assay [2] was < 0.06 µM (active) throughout.
As for `FC(F)Oc1ccc(-c2csc(NNC3=NCCCCC3)n2)cc1`, the AC50 in assay [3] is 1.77 µM (active).
Turning to `O=C1CC/[N+](=C\c2ccccc2)[N-]1`, the EC50 in assay [4] was 4.58 µM (active). The concentration at half-maximal activity (AC50) in assay [5] was 19.4 µM (active).
In the case of `COc1ccc(NC(=S)N(CCc2nc3cc(C)c(C)cc3[nH]2)Cc2cccnc2)cc1`, in assay [6], the AC50 is 0.891 µM (inconclusive).
Regarding `CC(C)(C)c1ccc(C(=O)NC(=S)Nc2nc3c(s2)CCCC3)cc1`, the EC50 in assay [7] is 0.192 µM (active). Also, the concentration at half-maximal activity (AC50) in assay [3] is 2.02 µM (active).
As to `CCn1c(=O)c(C(=O)NCCc2ccccc2)c(O)c2ccccc21`, the AC50 in assay [3] was 6.91 µM (active).
For `COc1ccc(NC(=O)c2ccc(COc3ccccc3Br)o2)cc1OC`, the concentration at half-maximal activity (AC50) in assay [3] is 1.69 µM (active).
As to `Cc1cccc(C(=O)OCC(=O)Nc2nnc(-c3ccccc3)o2)c1O`, the EC50 in assay [1] was 3.11 µM (active); in [2], 4.74 µM (active).
As to `CC(C)CN1CCCC2(CCN(C(=O)Oc3ccccc3)CC2)C1`, the AC50 is 20 µM (inconclusive) in [8] and 25.1 µM (inconclusive) in assay [6].
On to `COC(=O)Cc1n[nH]c2c1C(c1c[nH]c3ccccc13)C(C#N)=C(N)O2` (centres undefined), for which the EC50 in assay [4] is > 380 µM (inconclusive). Besides, the AC50 in [5] is > 380 µM (inactive).
Regarding `O=C1c2cc(Br)ccc2N(Cc2ccc(Br)cc2)S(=O)(=O)C1c1cc(Cl)c(Cl)cc1[N+](=O)[O-]` (centres undefined), in [3], the AC50 was 1.06 µM (active).
Turning to `CCNc1ncc2nc(-c3cn(C)c4ccccc34)c(=O)n(CCC#N)c2n1`, the AC50 in assay [6] was 12.6 µM (inconclusive).
As to `CC1(c2ccc(OC(F)F)cc2)NC(=O)N(CC(=O)Nc2cccc(F)c2)C1=O` (centres undefined), the EC50 in assay [9] is 4.52 µM (active).
Turning to `CCOC(=O)c1nnn(-c2nonc2-n2cccc2)c1CCl`, the EC50 in [4] is 1.42 µM (active). For the same molecule, the concentration at half-maximal activity (AC50) in assay [5] was 5.35 µM (active).
`CC(=O)OCC1=C(C(=O)O)N2C(=O)C(NC(=O)C(C)Cn3cc(Cl)cn3)C2SC1` (centres undefined): the EC50 in assay [1] was 1.39 µM (active); in assay [2], 1.27 µM (active).
With `O=S(=O)(NC1CC(NS(=O)(=O)OCC(Cl)(Cl)Cl)C2CCCCC12)OCC(Cl)(Cl)Cl` (centres undefined), the AC50 in assay [3] was 1.31 µM (active).
Turning to `Cn1cc(-c2nc3cncnc3n(C3CC3)c2=O)c2ccccc21`, in assay [6], the AC50 was 7.94 µM (inconclusive).
For `O=[N+]([O-])c1cc(Cl)cc2c1nc(NCCO)c1ccccc12`, the AC50 in assay [6] is 3.16 µM (inconclusive).
Still for that read-out and setting: for `Cc1nc2cnc(OCc3ccccc3)nc2n(CCc2ccccc2)c1=O` the value was 25.1 µM (inconclusive).
Regarding `Cc1ccccc1CS(=O)(=O)c1snnc1C`, the EC50 in [4] was > 380 µM (inactive). In [5], the AC50 was > 380 µM (inactive).
On to `Cc1ccc(NC(=O)C2C3CCCC2C3c2ccccc2)cc1C` (centres undefined), for which the AC50 in assay [6] was 8.91 µM (inconclusive).
Consider `COC(=O)c1c(-c2ccc(OC)cc2)oc2ccc(-c3cc(OC)c(OC)c(OC)c3)cc12`, for which the AC50 in assay [3] is 5.85 µM (active).
As to `Fc1cccc(C2NC(S)=NC3=C2N2CCC3CC2)c1` (centres undefined), the concentration at half-maximal activity (AC50) in assay [8] is 3.16 µM (inconclusive); in [6] it was 25.1 µM (inconclusive).
As to `Cc1[nH]c2ccc(F)cc2c1CCN(Cc1cccnc1)C(S)=Nc1ccc(F)cc1`, the values for the EC50 in [4], in [10] and in assay [11] were 93.4 µM (active), > 30 µM (not active) and 0.705 µM (active), respectively. In addition, the AC50 in assay [5] was 17.2 µM (active).
On to `O=c1[nH]cc(NCCc2ccccc2)c(=O)[nH]1`, for which the EC50 in assay [4] was 10.1 µM (active). In assay [5], the AC50 was > 380 µM (inconclusive).
In the same order, the values of `CCCCOc1ccc(C2C3CN(C(=O)OCC)CC=C3C(C#N)=C(N)C2(C#N)C#N)cc1OC` (centres undefined) are 29.8 µM (active) and > 380 µM (inactive).
Take `C/C=C(/C)C(=O)OC1CC(C)(C)C[C@H]2C3=CC[C@@H]4[C@@]5(C)CCC(O[C@@H]6O[C@@H](C(=O)O)[C@@H](O)C(O[C@@H]7OC[C@H](O)[C@@H](O)[C@@H]7O[C@@H]7OC(CO)C(O)[C@@H](O)[C@@H]7O)C6O[C@@H]6OC(CO)C(O)C(O)C6O)[C@@](C)(CO)[C@@H]5CC[C@]4(C)[C@]3(C)CC(O)[C@@]12CO` (some centres undefined): the EC50 in assay [9] is 5.49 µM (active).
For the molecule `CCOC(=O)Cn1cc(/C=N/NC(=O)CC#N)c2ccccc21`, the EC50 in assay [4] was 6.38 µM (active). Further, in assay [5], the AC50 is 61.1 µM (active).
